Test results: article PMC9534960, “De Novo Design of an Androgen Receptor DNA Binding Domain‐Targeted peptide PROTAC for Prostate Cancer Therapy” (Advanced Science, 2022)
No end group written: not given here.

How the values were obtained:
AR in CWR22rv1 cells = assay: Immunoblot AR degradation, CWR22rv1; type: cell-based; settings: immunoblot (Figure S16)
Method: H, I) IB analysis of WCLs from C4‐2 cells (H) and LNCaP cells (I) treated with CHX for the indicated times, with or without 250 nM Au‐AR DBD PROTAC drug treatment. The signal intensity of AR normalized to that of Vinculin was quantified. […] The signal intensities of AR and AR‐V7 normalized to that of Vinculin were quantified separately.
To investigate the AR cleavage ability of the Au‐AR DBD PROTAC drug, an immunoblot (IB) analysis of AR was performed. The primary antibody (catalog number:sc‐7305) targeting AR we used is raised against amino acids 299–315 of AR, so we could determine both AR and AR‐V7 at the same time.
Immunoblotting was performed to determine the AR amount after Au‐AR DBD PROTAC treatment. Cells were lysed in EBC buffer (50 mM Tris (pH 7.5), 120 mM NaCl, and 0.5% NP‐40) supplemented with protease inhibitors. Cell lysates were quantified by a Pierce bicinchoninic acid (BCA) Protein Assay Kit (Thermo Fisher). Equal amounts of total proteins were loaded for western blotting analysis. The proteins were separated by SDS‐PAGE gels. Then proteins were transferred to polyvinylidene fluoride (PVDF) membranes and incubated with specific primary antibodies at 4 °C overnight. After incubating with HRP‐conjugated secondary antibody for 1 h at room temperature, the protein immunoreactive signals were tested.

CWR22Rv1 xenografts = assay: CWR22Rv1 subcutaneous xenograft, tumor growth; type: in vivo, nude mice; settings: 2 mg kg^−1, intraperitoneal injection, every three days for three weeks, n = 5 per group
Method: (§1) Two administration routes were tested in the xenograft models, with subcutaneous injection (SC.) in C4‐2 models and intraperitoneal injection (IP.) in CWR‐22rv1 models. […] Each injection volume was 100 µl and PBS was used as control.
(§2) IHC score analysis was performed by the Image J IHC profiler.
(§3) A) Tumor growth curves of C4‐2 xenografts in nude mice treated as indicated (n = 5 per group). Statistical analysis was performed using the nonparametric Kruskal‐Wallis test; ****, p < 0.0001. The data are presented as the mean ± SD values (n = 5). B) Photos of C4‐2 tumors excised at the end of the experiment after different drug treatments. C) Average weight of tumors excised from each group of mice at the end of drug treatment. The data are presented as the mean ± SD values (n = 5). […] IHC scores were determined with ImageJ: 4, highly positive; 3, positive; 2, minimally positive; 1, negative. […] […]
(§4) Treatment of five groups of mice (5 mice per group) was initiated (i.e., day 1) after tumors were established in 2 weeks as palpable masses (50 mm^3). […] The tumor length and width were measured with calipers, and the tumor volume was calculated using the following equation: tumor volume (V) = length × width^2/2. […] All IHC staining images were scored using ImageJ profiler as published protocol.

C4‐2 xenografts = assay: C4‐2 subcutaneous xenograft, tumor growth; type: in vivo, nude mice; settings: 2 mg kg^−1, subcutaneous injection, every three days for three weeks, n = 5 per group
Method: as §1, §2, §3, §4

AR ΔDBD = assay: ITC binding to AR ΔDBD; settings: AR with mutation of amino acids (575‐591) in the DBD
Method: To determine the specificity of AR pep‐PROTAC, mutation of amino acids (575‐591) in the AR DBD plasmid was conducted.
ITC (isothermal titration calorimetry) was an established technique that can determine the binding ability between protein and ligands. The signal measured was the heat released upon the interaction of the two reactants. All proteins – MDM2, AR‐V7, or AR ΔDBD were obtained with E.Coli expression and purified by affinity chromatography. All peptides were synthesized by solid‐phase peptide synthesis and purified by preparative high‐performance liquid chromatography. For ITC experiments, clean sample cells and injection syringe were cleaned according to the manufacturer's protocol before loading protein and peptide. Rinse the sample cell several times with 2 ml of buffer. Load the sample cell with 0.2 ml of protein solution (all proteins concentration were around 20 µM), being careful to avoid bubble formation, load the syringe with 0.04 ml peptide solution (all peptides concentrations were around 200 µM). Choose the temperature at 25 °C for the ITC experiments. a small volume (0.4 µl) for the first injection was used and keep the subsequent injections at the desired volume (2 µl for 19 injections). Once the experiment had finished, the ITC data was fitted with the analysis software for the instrument.
Figure S20. Binding affinity between AR pep-PROTAC and AR-ΔDBD measured […]

Q: With N#Cc1ccc(O[C@H]2CC[C@H](NC(=O)c3ccc(N4CCC(CN5CCN(c6cc7c(cc6F)C(=O)N(C6CCC(=O)NC6=O)C7=O)CC5)CC4)nn3)CC2)cc1Cl (stereo partly shown) [ARV‐110] as the compound, how does the “full‐length AR degradation in CWR22rv1 cells (in words)” value (AR in CWR22rv1 cells) read?
A: induced full‐length AR degradation

Q: CNC(=O)c1ccc(N2C(=S)N(c3ccc(C#N)c(C(F)(F)F)c3)C(=O)C2(C)C)cc1F [enzalutamide] was tested. Which “effect on tumor growth, CWR22Rv1 xenograft” value (CWR22Rv1 xenografts) did it give?
A: but not the CWR22Rv1 xenograft model

Q: What about the “effect on tumor growth, C4‐2 xenograft” value (C4‐2 xenografts) of the same compound?
A: inhibited tumor growth

Q: Which “interaction with AR ΔDBD by ITC” value (AR ΔDBD) does the source give for “YLCSSNNNRERDKFRRGGSGGTSFEQFWAWLWP-NH2 (C-terminus assumed) [AR pep‐PROTAC]” here?
A: no interaction
